This note sets out measurements from patent US10065951B2, “Small molecule transcription modulators of bromodomains” (Icahn School of Medicine at Mount Sinai, priority 2014, dated 2018).

In assay [1] the test system is histone H3 acetylation in Oli-Neu cells. Put plainly: Western blot of histone acetylation in Oli-Neu oligodendrocyte progenitor cell line. As to conditions: oligodendrocyte-derived cell lines, one day treatment. Format: cell-based, mouse. As to the method:
FIG. 4 illustrates the effects of dose-dependent 4c treatment (one day) of immortialized oligodendrocyte progenitors (Oli-Neu) on histone H3 acetylation and α-tubulin assessed by Western blotting using specific antibodies.
Oli-Neu cell line derived from mouse oligodendrocyte progenitors immortalized with the Neu antigen were grown on poly-ornithine-coated culture dishes and maintained proliferating in growth medium ODM plus 1% horse serum as previously described (He et al., 2007). Oli-Neu cells were induced to differentiation in ODM+0.5 mM dybutiryl-cAMP (Sigma) and treated together with CM000149 at indicated concentrations for one day. The cells treated with DMSO were used as the control. Total proteins from cultured cells were extracted using lysis buffer containing 50 mM Hepes (pH 7.4), 150 mM NaCl, 1% NP-40, 1 mM dithiothreitol (DTT), 1 mM EDTA, 0.01% phenylmethylsulfonyl fluoride (PMSF), 1 mM aprotinin and 1 mM leupeptin. Equal amount (40 μg) of proteins were loaded on 12% SDS-PAGE for separation and transferred onto PVDF (Millipore) membrane using a buffer containing 25 mM Tris base, pH 8.3, 192 mM glycine, 20% methanol for 1 hour at 100 V at 4° C. […]

Assay [2] concerns rat primary oligodendrocyte progenitors. Put plainly: Oligodendrocyte progenitor differentiation (immunocytochemistry NG2/O4/MBP, qRT-PCR MOG). Format: cell-based. As to conditions: 10 nM. The method, then:
Early and differentiating progenitors were identified by positive immunoreactivity for the marker NG2 (dark) or O4 (light), respectively. FIG. 6B illustrates the number of NG2+, O4+ and NG2+/O4+ cells quantified in three independent experiments and the total number of oligodendrocyte lineage cells (mean±SD). FIG. 6C illustrates the results of rat primary cells cultured in medium containing 4c (10 nM) for 4 days and then labeled with O4 (light) and with the differentiation marker MBP (dark). FIG. 6D is a bar graph showing the number of MBP+ cells quantified in three independent experiments (mean±SD). FIG. 6E illustrates the qRT-PCR of the transcript levels of the late differentiation marker MOG in treated cells.
Cortex from rat p1 pups were dissected in L-15 medium and collected in NM10 medium (DMEM+10% FBS+2 mM glutamine+1 mM sodium pyruvate+100 U/ml penicillin+100 μg/ml streptomycin). The dissociated cells were plated into 75 cm^2 flasks (1.5 brain per flask) and cultured at 37° C. supplied with 5% CO2 for 7 days with the changing of fresh NM10 medium every other day. At day 8 the flasks were shaken for 16-18 h at 200 rpm and 37° C. and the medium containing the ‘shaken-off’ cells were collected. Oligodendrocyte progenitors (OPCs) were then isolated from the cell suspension by immunoselection using A2B5 antibodies followed by incubation with anti-immunoglobulin magnetic microbeads (50 nm in size and biodegradable) and separation using a high-gradient magnetic field generated by the permanent magnet in the MACS Separator unit (Miltenyi Biotec). The purified OPCs were plated in NM10 medium onto Lab Tek®II 8-well chamber slides (Nalge Nunc Inc.) at a density of 2×10^4 per well for immunocytochemistry, or poly-D-lysine-coated 6-well plates at a density of 2×10^5 per well for RNA isolation. After incubated for 8-16 hr, the medium was changed to ODM (DMEM, 2 mM L-glutamine, 1 mM sodium pyruvate, 10 ng/ml biotin, 100 μg/ml apotransferrin, 100 μM putrescine, 20 nM progesterone, 30 nM sodium selenite, 5 μg/ml insulin, 100 U/ml penicillin, 100 μg/ml streptomycin) supplemented with bFGF (20 ng/ml) and platelet derived growth factor (PDGF; 10 ng/ml), and cultured for additional one day as previously described (He, Y. et al., Neuron 55, 217-30 (2007)). Oligodendrocyte differentiation was induced by culturing the cells in the same medium devoid of mitogens (ODM) with or without compounds at indicated concentrations. […]
Images were captured at 20× objective using LSM 710 Meta confocal laser scanning microscope (Carl Zeiss MicroImaging, Inc.). For the quantification of the cells at different stages, three fields of each well and three wells of each condition were analyzed. […]

Assay [3] has as its system p53-induced p21 luciferase activity in U2OS cells. Put plainly: p53-dependent p21 luciferase activity in U2OS cells under doxorubicin treatment. The class given is cell-based, human. As to the method: The luciferase activity was normalized to renilla luciferase as a control. The IC50 was calculated using PRISM software.
The activity of the pyrido-indole compounds (FIG. 10) were evaluated for their ability to inhibit p53 activation in human osteosarcoma (U2OS) cells. The p53 activation was induced by DNA damage upon treatment of doxorubicin, and effects of compound treatment were measured by p53-dependent p21 luciferase activity. U2OS Cells were transfected with p21 luciferase (1 μg) and renilla luciferase (100 ng) vectors in six-well plate format using Fugene 6 (Roche). 1.1 μg of vector was incubated with […] of Fugene 6 reagent for 30 min. After 3-4 hours of transfection, cell were treated with compounds overnight, and then exposed to 300 ng of doxorubicin for the next 24 hours. In these experiments, DMSO, transfected cells with empty vectors, and cells without doxorubicin were used as controls. The DMSO concentration was maintained at 0.01%. Transfected cells with doxorubicin treatment were used as a positive control. The luciferase activity was estimated by following the manufacturer's instruction (Promega) in a luminometer. Both active and passive lysis of cells yielded consistent results. The inhibitory activity (IC50) of a small molecule on p21 luciferase activity was obtained from the average of three biological replicates using PRISM software.

As for `CC(=O)NCCCCn1c2c(c3ccccc31)C(=O)NCC2` [4c, 2,3,4,5-tetrahydro-5-(4′-acetamidobutyl)-1H-pyrido-[4,3-b]indol-1-one], the global histone acetylation entry in assay [1] is on record as “decrease of global histone acetylation in a dose-dependent manner”. Further, the “percentage of MBP+ cells” value in assay [2] (4-day treatment) is listed as “increased percentage of MBP+ cells”. Also, in assay [2] (4-day treatment, qRT-PCR), the “transcript levels of late-differentiation marker MOG” value is reported as “increased transcript levels”. In assay [2] (two-day treatment), the “NG2+ progenitors” value is “concomitant decrease of NG2+ progenitors” and the “percentage of O4+ cells” value is reported as “increased percentage of O4+ cells”. For the same compound, the “inhibition of p53-induced p21 activation” value in assay [3] was “most potent effect”.
